Data published in patent US20180116960A1, “TREATING FUNGAL INFECTION OF THE NAIL UNIT” (priority 2009, published 2018).
Structures can show the parent of a compound that is named as a salt.

Legend:
[1] = solubility of terbinafine HCl in solvents; type: physicochemical; conditions: thermodynamic from solid
Protocol: (§1) With 0.1% Tween-80 in water, the solubility of terbinafine HCl in terbinafine HCl-PEG 3350 blend (75/25, W/W) was 4 mg/mL. […] The final pH was 3.0.
(§2) When DMSO is used as the solvent, the solubility of terbinafine HCl was close to 100 mg/mL. […] The solution was made by weighing 100 mg of terbinafine HCl powder in a glass vial and then adding 1 ml of DMSO solvent. The glass vial was sealed and vortexed for 5 minutes with a mini vortexor. The resulting solution was clear.

[2] = stability of terbinafine HCl solutions on standing; type: physicochemical
Protocol: as §1, §2

solubility at 5 min ([1]; DMSO, organic solvent or mixture): ~100000 µg/mL | solubility ([1]; aqueous buffer, phosphate-buffered saline (PBS 1×, starting pH 7.4), final pH 4.2): 780 µg/mL | solubility ([1]; aqueous with cosolvent or surfactant or cyclodextrin, 0.1% Tween-80 in water, terbinafine HCl in terbinafine HCl-PEG 3350 blend (75/25, W/W), final pH 3.0): 4000 µg/mL | appearance of solution on standing ([2]; 0.1% Tween-80 in water, room temperature, 5 days): clear but turned cloudy | time the solution was stable ([2]; DMSO solution): up to 7 days | concentration of solution on storage ([2]; DMSO solution, after 14 days up to 22 days): remained constant | concentration of solution on storage ([2]; DMSO solution, at 14 days): 90000 µg/mL
Structure (SMILES): CN(C/C=C/C#CC(C)(C)C)Cc1cccc2ccccc12 [terbinafine HCl]
